Results on 24 compounds are retold here after patent US9206130B2, “Quinoline derivatives as AXL kinase inhibitors” (Max-Planck-Gesellschaft zur Förderung der Wissenschaften …, priority 2008, dated 2015).

The target of series [1] is T1, wild type AXL (wtAXL) receptor tyrosine kinase (Homo sapiens, UniProt P30530).
T1 construct: WtAXL cDNA was cloned into vector pLXSN(ESK) and transfected into Phoenix E packaging cells; expressed in transfected cells; host or cells: NIH3T3 N7 mouse fibroblasts, retrovirally infected (clone 22)
T1 sequence (P30530 26-894): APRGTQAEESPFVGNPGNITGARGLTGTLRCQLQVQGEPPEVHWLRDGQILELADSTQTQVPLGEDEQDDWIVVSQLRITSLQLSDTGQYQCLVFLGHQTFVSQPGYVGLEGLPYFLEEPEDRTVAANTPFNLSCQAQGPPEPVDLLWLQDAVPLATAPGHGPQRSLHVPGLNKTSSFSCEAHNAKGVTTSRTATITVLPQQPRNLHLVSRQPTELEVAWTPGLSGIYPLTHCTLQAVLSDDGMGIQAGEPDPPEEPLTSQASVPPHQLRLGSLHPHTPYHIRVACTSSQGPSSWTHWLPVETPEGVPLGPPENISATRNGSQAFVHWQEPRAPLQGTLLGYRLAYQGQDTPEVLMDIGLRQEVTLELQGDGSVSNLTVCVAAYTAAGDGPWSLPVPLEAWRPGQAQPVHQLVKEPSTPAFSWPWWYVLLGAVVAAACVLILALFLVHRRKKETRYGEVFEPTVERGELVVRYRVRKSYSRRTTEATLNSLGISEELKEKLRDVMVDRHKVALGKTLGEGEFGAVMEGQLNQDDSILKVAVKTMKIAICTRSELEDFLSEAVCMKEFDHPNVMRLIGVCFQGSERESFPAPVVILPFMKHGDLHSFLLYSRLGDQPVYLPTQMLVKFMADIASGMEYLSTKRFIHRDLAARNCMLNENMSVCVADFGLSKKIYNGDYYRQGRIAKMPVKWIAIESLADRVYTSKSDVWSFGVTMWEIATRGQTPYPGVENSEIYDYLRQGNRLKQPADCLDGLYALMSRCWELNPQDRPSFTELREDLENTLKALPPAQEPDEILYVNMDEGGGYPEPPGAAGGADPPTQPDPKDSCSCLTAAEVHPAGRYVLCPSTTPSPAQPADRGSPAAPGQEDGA
Kind of series: NIH-3T3-AXL cellular tyrosine kinase assay (inhibition of AXL phosphorylation). The class given is cell-based. The following applies: AXL phosphorylation in NIH-3T3-AXL (clone 22) cells, serum-depleted, 2 h with compound, immunoprecipitation / anti-phosphotyrosine blot. The gist of the method:
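NIH3T3 clones stably expressing human wtAXL (puromycin-selected) were exposed to serially diluted compounds for 2 h. AXL was immunoprecipitated from lysates with anti-AXL antibody, and phosphorylation detected by anti-phosphotyrosine (4G10) western blot with ECL.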

On to `COc1cc2c(Oc3ccc(NS(=O)(=O)c4ccc(F)cc4F)cc3F)ccnc2cc1OCCN1CCOCC1` [Example D28, 2,4-Difluoro-N-{3-fluoro-4-[6-methoxy-7-(2-morpholin-4-yl-ethoxy)-quinolin-4-yloxy]-phenyl}-benzenesulfonamide], for which the melting point lay within 189 to 191 °C. Also, the half-maximal inhibitory concentration (IC50) in series [1] is > 1000 nM.
Compound `Cc1cc(Oc2ccc(NS(=O)(=O)c3c(F)cccc3F)c(F)c2)c2cc(F)ccc2n1` [Example B6, 2,6-Difluoro-N-[2-fluoro-4-(6-fluoro-2-methyl-quinolin-4-yloxy)-phenyl]-benzenesulfonamide] registered a melting point of 188 to 190 °C. For the same compound, the IC50 in series [1] is > 10000 nM.
Consider `COc1ccc(S(=O)(=O)Nc2ccc(Oc3cc(C)nc4c(C(F)(F)F)cccc34)c(F)c2)c2ccccc12` [Example C08, 4-Methoxy-naphthalene-1-sulfonic acid [3-fluoro-4-(2-methyl-8-trifluoromethyl-quinolin-4-yloxy)-phenyl]-amide], for which the melting point is 242 to 244 °C. In addition, the IC50 in series [1] is > 10000 nM.
Compound `COc1cc2nccc(Oc3ccc(NS(=O)(=O)c4cc(C)c(NC(C)=O)c(C)c4)cc3)c2cc1OC` [Example A66, N-{4-[4-(6,7-Dimethoxy-quinolin-4-yloxy)-phenylsulfamoyl]-2,6-dimethyl-phenyl}-acetamide] gave a melting point of 145 to 147 °C. In addition, the IC50 in series [1] is > 10000 nM.
Taken in the same sequence, the figures for `COc1cc2nccc(Oc3ccc(NS(=O)(=O)c4cccc(C)c4)c(F)c3)c2cc1OC` [Example A26, N-[4-(6,7-Dimethoxy-quinolin-4-yloxy)-2-fluoro-phenyl]-3-methyl-benzenesulfonamide] were 244 to 245 °C and 4730 nM.
`Cc1cc(Oc2ccc(NS(=O)(=O)c3cc(Cl)cc(Cl)c3O)cc2)c2cc(F)ccc2n1` [Example B22, 3,5-Dichloro-N-[4-(6-fluoro-2-methyl-quinolin-4-yloxy)-phenyl]-2-hydroxy-benzenesulfonamide] returned a melting point of 203 to 205 °C. The IC50 in series [1] was 7000 nM.
On to `COc1cc2nccc(Oc3ccc(NS(=O)(=O)c4cccc(-c5ncccn5)c4)cc3)c2cc1OC` [Example A82, N-[4-(6,7-Dimethoxy-quinolin-4-yloxy)-phenyl]-3-pyrimidin-2-yl-benzenesulfonamide], for which the melting point was in the range of 194 to 195 °C. Also, in series [1], the 50% inhibitory concentration (IC50) is > 1000 nM.
Taken in the same sequence, the figures for `COc1cc2nccc(Oc3ccc(NS(=O)(=O)c4ccc(OC)c5ccccc45)c(C)c3)c2cc1OC` [Example A150, 4-Methoxy-naphthalene-1-sulfonic acid [4-(6,7-dimethoxy-quinolin-4-yloxy)-2-methyl-phenyl]-amide] were 216 to 217 °C and > 10000 nM.
`COc1cc2nccc(Oc3ccc(NS(=O)(=O)c4ccccc4OC(F)(F)F)cc3F)c2cc1OC` [Example A126, N-[4-(6,7-Dimethoxy-quinolin-4-yloxy)-3-fluoro-phenyl]-2-trifluoromethoxy-benzenesulfonamide] registered a melting point of 203 to 204 °C. In addition, the concentration for half-maximal inhibition (IC50) in series [1] is 130 nM.
`COc1cc2nccc(Oc3ccc(NS(=O)(=O)c4ccc(Br)s4)c(F)c3)c2cc1OC` [Example A29, 5-Bromo-thiophene-2-sulfonic acid [4-(6,7-dimethoxy-quinolin-4-yloxy)-2-fluoro-phenyl]-amide] registered a melting point of 207 to 209 °C. In series [1], the IC50 amounted to 2300 nM.
`COc1cc2nccc(Oc3ccc(NS(=O)(=O)c4cccc(-c5ccccc5)c4)cc3C)c2cc1OC` [Example A75, Biphenyl-3-sulfonic acid [4-(6,7-dimethoxy-quinolin-4-yloxy)-3-methyl-phenyl]-amide] gave a melting point of 178 to 180 °C. In addition, in series [1], the concentration for half-maximal inhibition (IC50) is > 3000 nM.
In turn, `COc1cc2nccc(Oc3ccc(NS(=O)(=O)c4cccc(Oc5ccccc5)c4)c(F)c3)c2cc1OC` [Example A30, N-[4-(6,7-Dimethoxy-quinolin-4-yloxy)-2-fluoro-phenyl]-3-phenoxy-benzenesulfonamide] registered a melting point of 179 to 180 °C. For the same compound, the IC50 in series [1] is 630 nM.
`Cc1cc(Oc2ccc(NS(=O)(=O)c3cccc4ccccc34)c(F)c2)c2cccc(C(F)(F)F)c2n1` [Example C04, Naphthalene-1-sulfonic acid [2-fluoro-4-(2-methyl-8-trifluoromethyl-quinolin-4-yloxy)-phenyl]-amide] showed a melting point of 232 to 234 °C. Further, the IC50 in series [1] is > 10000 nM.
For the compound `COc1cc(S(=O)(=O)Nc2ccc(Oc3ccnc4cc(OC)c(OC)cc34)cc2)ccc1F` [Example A116, N-[4-(6,7-Dimethoxy-quinolin-4-yloxy)-phenyl]-4-fluoro-3-methoxy-benzenesulfonamide], the melting point fell in the range of 222 to 224 °C. Besides, in series [1], the IC50 is > 3000 nM.
In the case of `COc1cc2nccc(Oc3ccc(NS(=O)(=O)c4cccc5ccccc45)c(F)c3)c2cc1OC` [Example A17, Naphthalene-1-sulfonic acid [4-(6,7-dimethoxy-quinolin-4-yloxy)-2-fluoro-phenyl]-amide], the melting point lay in the range of 243 to 245 °C. In series [1], the 50% inhibitory concentration (IC50) was 890 nM.
`COc1cc2nccc(Oc3ccc(NS(=O)(=O)c4ccc(Cl)cc4F)cc3F)c2cc1OC` [Example A110, 4-Chloro-N-[4-(6,7-dimethoxy-quinolin-4-yloxy)-3-fluoro-phenyl]-2-fluoro-benzenesulfonamide] returned a melting point of 99 to 101 °C. For the same compound, in series [1], the 50% inhibitory concentration (IC50) worked out at 1180 nM.
For `COc1cc2nccc(Oc3ccc(NS(=O)(=O)c4ccc(C(F)(F)F)cc4Br)c(F)c3)c2cc1OC` [Example A45, 2-Bromo-N-[4-(6,7-dimethoxy-quinolin-4-yloxy)-2-fluoro-phenyl]-4-trifluoromethyl-benzenesulfonamide], the melting point is 236 to 238 °C. Further, the concentration for half-maximal inhibition (IC50) in series [1] is > 10000 nM.
With `CCn1cc(S(=O)(=O)Nc2ccc(Oc3cc(C)nc4ccc(F)cc34)cc2)cn1` [Example B21, 1-Ethyl-1H-pyrazole-4-sulfonic acid [4-(6-fluoro-2-methyl-quinolin-4-yloxy)-phenyl]-amide], the melting point was 165 to 167 °C. The IC50 in series [1] was > 10000 nM.
For `COc1cc2c(Oc3ccc(NS(=O)(=O)c4ccc(F)cc4F)cc3F)ccnc2cc1OCCCN1CCC(C)CC1` [Example D19, 2,4-Difluoro-N-(3-fluoro-4-{6-methoxy-7-[3-(4-methyl-piperidin-1-yl)-propoxy]-quinolin-4-yloxy}-phenyl)-benzenesulfonamide], the melting point is 135 to 137 °C. In series [1], the IC50 amounted to 128 nM.
Taken in the same sequence, the figures for `COc1cc2nccc(Oc3ccc(NS(=O)(=O)c4csc5ccccc45)cc3OC)c2cc1OC` [Example A144, Benzo[b]thiophene-3-sulfonic acid [4-(6,7-dimethoxy-quinolin-4-yloxy)-3-methoxy-phenyl]-amide] were 144 to 146 °C and > 10000 nM.
For `COc1cc2nccc(Oc3ccc(NS(=O)(=O)c4ccc(Br)cc4OC(F)(F)F)cc3F)c2cc1OC` [Example A146, 4-Bromo-N-[4-(6,7-dimethoxy-quinolin-4-yloxy)-3-fluoro-phenyl]-2-trifluoromethoxy-benzenesulfonamide] the same measures were 226 to 228 °C and 890 nM.
Taken in the same sequence, the figures for `COc1cc2nccc(Oc3ccc(NS(=O)(=O)c4cccc(-c5ccccc5)c4)c(C)c3)c2cc1OC` [Example A89, Biphenyl-3-sulfonic acid [4-(6,7-dimethoxy-quinolin-4-yloxy)-2-methyl-phenyl]-amide] were 220 to 222 °C and 450 nM.
The compound `COc1cc2nccc(Oc3ccc(NS(=O)(=O)c4ccc(-c5ccccc5)cc4)cc3F)c2cc1OC` [Example A107, Biphenyl-4-sulfonic acid [4-(6,7-dimethoxy-quinolin-4-yloxy)-3-fluoro-phenyl]-amide] registered a melting point of 167 to 171 °C. The IC50 in series [1] is > 10000 nM.
`Cc1cc(Oc2ccc(NS(=O)(=O)c3cccs3)c(F)c2)c2cc(F)ccc2n1` [Example B1, Thiophene-2-sulfonic acid [2-fluoro-4-(6-fluoro-2-methyl-quinolin-4-yloxy)-phenyl]-amide] came in with a melting point of 166 to 167 °C. Besides, the IC50 in series [1] is > 10000 nM.
